Laboratory results: patent publication US11267802B2 (BEBETTER MED INC., priority 2015, dated 2022)

Tests used:
H1975 = assay: Inhibition assay on tumor cell proliferation (CellTiter-Glo), H1975; type: cell-based, Human; settings: Homo sapiens, NCI-H1975; H1975 (L858R and T790M EGFR double mutation), 72 hours, 10% bovine serum
[1] = Pharmacokinetic experiments of tumor model (plasma and tumor tissue, H1975 xenograft mice); type: in vivo, Balb/C nude mice; settings: oral 30 mg/kg; for AUC(0-inf) / Cmax / Tmax / half-life / AUC(0-t): Balb/C nude, mouse; for AUC(0-t): read-out: AUC0-24
Procedure: Balb/C nude mice were purchased from Beijing Vital River Laboratory Animal Technology Co., Ltd., and housed in SPF animal room. The human non-small-cell lung cancer cell line H1975 in a culture dish was collected by trypsin-EDTA (0.25% trypsin, 1 mM EDTA), and then washed with a serum-free PBS solution. Lastly, the cells were implanted after diluted in a serum-free medium. Only the single cell suspension with a survival rate over 90% (Trypan blue rejection) can be used for injection. 5 million cells suspended in a 0.1 ml serum-free culture were injected into the front right flanking subcutaneous region of each mouse by using a 1 ml syringe and a 25G syringe needle, and the blood vessel was carefully avoided. The tumor size was measured in about one week after implantation. A caliper rule was used to measure the tumor size. The tumor volume was calculated by the following formula: tumor volume=(length×width^2)/2.
When the volume of H1975 xenograft tumor reached a volume of about 400 mm^3, the animals were divided into 6 oral administration groups, that is, excipient control group (0 hour) and groups of 30 minutes, 2 hours, 4 hours, 8 hours, and 24 hours after administration (3 animals at each time point). The compound 91 was dissolved in 30% sulfobutylated beta-cyclodextrin (SBE-β-CD) and 1 N HCl (pH 3-4) at a concentration of 3 mg/ml, and gavage administration at a dose of 30 mg/kg was performed. The mice were euthanized by CO2 at the above time points. Then their blood was collected from the heart and placed in a centrifuge tube containing K2-EDTA, and subjected to plasma collection by centrifugation. The tumor tissue was collected, cooled in liquid nitrogen immediately, and then stored under −80° C. until pharmacokinetic analysis.
Pharmacokinetic analysis was performed as below: the plasma sample and tumor tissue homogenate sample were mixed with 5 microliter of internal standard (IS), and then extracted with ethyl acetate. After vacuum drying, the residue was re-dissolved in acetonitrile. The sample was filtered and injected into LC-MS/MS for analysis.

[2] = Pharmacokinetics in beagles after oral administration; type: in vivo; settings: male, beagle, dog, 5 mg/kg, plasma
Procedure: Male SD rats weighing 250-300 g, or male beagles weighing 9-10 kg, were fasted overnight before the experiment. The object compounds were dissolved in 30% sulfobutylated beta-cyclodextrin (SBE-β-CD), and orally administrated to the rats at a dose of 20 mg/kg or to the beagles at a dose of 5 mg/kg. Blood samples were taken at 15 minutes, 30 minutes, 1 hour, 2 hours, 3 hours, 4 hours, 6 hours, 8 hours and 24 hours after administration. 0.3 ml of blood was collected at every time point, placed in a centrifuge tube containing K2-EDTA (ethylenediamine tetraacetic acid dipotassium) and centrifuged (2,000 g, 10 minutes, 4° C.) to collect plasma, which was then stored in an ultra cold storage freezer at −80° C. 50 μL of plasma sample was mixed with 5 μL of internal standard (IS), and then extracted with ethyl acetate. After vacuum drying, the residue was re-dissolved in acetonitrile. The sample was filtered and injected into LC-MS/MS for analysis.

H358 = assay: Inhibition assay on tumor cell proliferation (CellTiter-Glo), H358; type: cell-based, Human; settings: Homo sapiens, NCI-H358; H358 (wild-type EGFR), 72 hours, 10% bovine serum
How it was run: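 Viability from ATP content by CellTiter-Glo luminescence; inhibition normalised to DMSO (max) and medium-only (min) wells, IC50 by sigmoidal dose-response fitting. LOVO and H358 carry wild-type EGFR; HCC827 has exon 19 deletion.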

C=CC(=O)Nc1cc(Nc2nccc(-n3c(=O)n(C(C)C)c4cc(F)ccc43)n2)c(OC)cc1N(C)CCN(C)C [Compound 91, N-(2-((2-(dimethylamino)ethyl)(methyl)amino)-5-(4-(5-fluoro-3-isopropyl-2-oxo-2,3-dihydro-1H-benzo[d]imidazol-1-yl)pyrimidin-2-ylamino)-4-methoxyphenyl)acrylamide]
IC50 (H1975): < 10 nM | AUC(0-inf) ([1]; plasma): 5130 ng·h/mL | Cmax ([1]; plasma): 1720 ng/mL | Tmax ([1]; plasma): 0.5 h | half-life ([1]; plasma): 3.1 h | AUC(0-t) ([1]; plasma): 5100 ng·h/mL | AUC(0-inf) ([1]; tumor tissue): 6840 ng·h/mL | Cmax ([1]; tumor tissue): 868 ng/mL | Tmax ([1]; tumor tissue): 4 h | half-life ([1]; tumor tissue): 5.5 h | AUC(0-t) ([1]; tumor tissue): 6430 ng·h/mL | absorption after oral administration (in words) [1]: absorbed quickly | AUC(0-inf) [2]: 814 ng·h/mL | Cmax [2]: 109 ng/mL | Tmax [2]: 1.67 h | half-life [2]: 4.37 h | AUC(0-t) ([2]; read-out: AUC0-24): 786 ng·h/mL | IC50 (H358): 100 to 1000 nM
